Entries after “also recorded” stand apart in the source; their conditions may differ.
Assays:
p75^NGFR mRNA [1] = assay: Northern blot analysis of p75NGFR mRNA in PC12 cells; assay type: cell-based, rat; details: NGF-treated PC12 cells
Protocol: PC12 cells were cultured on collagen-coated coverslips or tissue culture dishes in phenol red-free RPMI 1640 (Gibco BRL) nutrient medium supplemented with 10% (heat-inactivated) gelded (steroid-deficient) horse serum (JRH Biological), according to a modification of standard procedures. In these experiments, fetal calf serum, which contains physiologic levels of estrogen, (32 pg/ml) was not used.
Total RNA, prepared by a modification of the Chomczynski and Sacchi method, was size-fractionated (10-20 μg/lane) on a 1.2% agarose-18% formaldehyde gel and capillary-transferred to nylon membrane (Hybond-N; Amersham). Filters were prehybridized (4-18 h) and hybridized (36-40 h) at 42° C. in 50% Formamide, 3× SSC, 0.1M Tris, 5× Denhardt's and 10% Dextran Sulfate. Probes were labeled with [α-^32 P]-dCTP by the random priming procedure (Random Priming kit, Boehringer Mannheim). trkA mRNA was identified by hybridization with pDM97, a 450 bp trkA-specific probe corresponding to the extracellular and transmembrane domains of the trkA gene [67; gift of L. F. Parada, NCI-FCRDC]. p75^NGFR was probed by hybridization with p5b, a 2 Kb probe corresponding to the extracellular domain of the p75^NGFR gene. Blots were washed first in 0.2×SSC and 0.5% SDS briefly at room temperature and then for 2 h at 60° C., with frequent changes of wash buffer. Filters were then exposed to film (Kodak X-Omat) between intensifying screens and stored at -70° C. for 1-4 days before developing.
Using a standard densitometry package (Jandel Scientific), optical density measurements were obtained from X-ray film. trkA and p75^NGFR transcript densities were normalized to an internal control to account for variation in the amount of RNA loaded.
Total RNA was analyzed by Northern blot analyses, using ^32 P-labeled cDNA probes for trkA and p75^NGFR.

PC12 cells = assay: Morphology / neurite differentiation of PC12 cells; assay type: cell-based, rat; details: estrogen exposure
ERKs 1 and 2 [2] = assay: Tyrosine phosphorylation of ERKs 1 and 2 in cerebral cortical explants; assay type: cell-based; details: P2 cortical explants
Protocol: (§1) Estrogen and the neurotrophins have important roles in the developing and adult central nervous system (CNS). […] The hypothesis that estrogen/neurotrophin receptor co-expression leads to reciprocal regulation at the level of signal transduction, through cross-coupling of converging estrogen and neurotrophin signaling pathways whose end-points in the nucleus may be the very same genes was tested. Postnatal day 2 cerebral cortex was maintained as organotypic explants in roller tube culture for 7 days.

ERKs = assay: In-gel kinase assay of ERKs with MBP as substrate, cortical explants; assay type: cell-based
Protocol: as §1

trk receptors = assay: Tyrosine phosphorylation of the trk receptors, cortical explants; assay type: cell-based
Protocol: as §1

ERKs 1 and 2 [3] = assay: ERK activation in PC12-E2 cells; assay type: cell-based
Excerpt: (§2) It has been previously reported that wild-type, differentiated PC12 pheochromocytoma cells express very low levels of estrogen receptors. Here it is reported that a PC12 cell variant, PC12-E2 (Wu, Bradshaw, J. Cell Physiol. 164:1995), is estrogen responsive and expresses high estrogen receptor level (≈50% of the levels observed in estrogen receptor over-expressing MCF-7 cells). Moreover, although tyrosine phosphorylation of the estrogen receptor appeared to be expressed constitutively, these cells responded to added estrogen. PC12-E2 responsiveness to estrogen was determined morphologically and by measuring estradiol-induced ERK activation. […] Preliminary co-precipitation experiments show an association between src and estrogen receptor, src with MEK (MAP Kinase/ERK-activating Kinase), and MEK with B-raf, MEK, which phosphorylates the ERKs on tyrosine residues, is known to exist as a complex consisting of at least hsp90 and B-raf.

ERK = ERK stimulation in wild-type, differentiated PC12 cells; assay type: cell-based
PC12-E2 cells = assay: Morphological study of neurite growth in PC12-E2 cells; assay type: cell-based
Excerpt: as §2

trkA mRNA = details: adult female rat DRG neurons in vivo [90]; listed as estrogen; cited from earlier work
p75^NGFR mRNA [4] = details: adult female rat DRG neurons in vivo [90]; cited from earlier work
estrogen receptor mRNA [5] = assay: Semiquantitative RT-PCR of estrogen receptor mRNA in cortical and basal forebrain explant cultures; assay type: cell-based, rat; details: cortical and basal forebrain explants, hrNGF 100 ng/mL
Excerpt: Time-pregnant rats (Sprague-Dawley) were obtained from Zivic (Miller, Pa.). Organotypic explant cultures were obtained from postnatal day (P) 2 rat brains (P1=day of birth) of both sexes. Brains were slice coronally into 360-μm thick sections using a brain slicer (Toran-Allerand, 1990). A total of four coronal sections from the periseptal region were isolated and dissected into four pairs of hemicoronal cortical [cingulate and neocortex, FIG. 6(a)] and basal forebrain [septum, nuclei of the diagonal band of Broca and ventral pallidum, FIG. 6(b)] sections. Hemicoronal explants were maintained in roller tube assemblies (Caeser et al., 1989; Gahwiler et al., 1991), on collagen coated coverslips for 8 days in vitro, in serum supplemented (25% gelded horse serum, JRH), steroid deficient and phenol red free medium containing 50% basal medium (Eagle's), 25% Hank's balanced salt solution (HBSS), and 0.65% glucose. […] Cultures were fed 3 times a week.
Estrogen receptor mRNA expression was assessed by semiquantitative RT-CPR, using RNA isolated from pooled cortical (two explants pooled/sample) and basal forebrain (four explants pooled/sample) cultures. PCR primers (gift of B. Schachter, Mount Sinai Hospital) were designed to amplify a 300 base pair (bp) sequence from the region coding for the ligand binding domain (Sohrabji et al., 1994b). […]

estrogen receptor mRNA [6] = assay: Isotopic in situ hybridization of estrogen receptor mRNA in cortical explant cultures; assay type: cell-based, rat; details: cortical explants, hrNGF 100 ng/mL
Excerpt: (§3) Time-pregnant rats (Sprague-Dawley) were obtained from Zivic (Miller, Pa.). Organotypic explant cultures were obtained from postnatal day (P) 2 rat brains (P1=day of birth) of both sexes. Brains were slice coronally into 360-μm thick sections using a brain slicer (Toran-Allerand, 1990). A total of four coronal sections from the periseptal region were isolated and dissected into four pairs of hemicoronal cortical [cingulate and neocortex, FIG. 6(a)] and basal forebrain [septum, nuclei of the diagonal band of Broca and ventral pallidum, FIG. 6(b)] sections. […]
Estrogen receptor mRNA was detected in cerebral cortical cultures in using […] oligonucleotide probes complementary to a sequence within rat estrogen receptor mRNA coding for hormone binding domain (Miranda et al., 1993b, 1994; Miranda and Toran-Allerand, 1992; Toran-Allerand et al., 1992b). […] Isotopically (^35 S)-labeled hybrids were detected in whole explant cultures by desiccating the cultures and apposing them to autoradiographic film (Kodak X-omat). The intensity of mRNA expression was quantified as the density of film exposure over the explant divided by the density over background using a standard morphometrics package (Jandel Scientific).

estrogen receptor = biological target: T1, estrogen receptor (Rattus norvegicus, UniProt P06211); assay: Modified nuclear binding assay, basal forebrain explant cultures; assay type: cell-based; parameters: endogenous in cells; details: P2 rat basal forebrain explants, 8 days in vitro, hrNGF 100 ng/mL
T1 sequence (P06211 1-600): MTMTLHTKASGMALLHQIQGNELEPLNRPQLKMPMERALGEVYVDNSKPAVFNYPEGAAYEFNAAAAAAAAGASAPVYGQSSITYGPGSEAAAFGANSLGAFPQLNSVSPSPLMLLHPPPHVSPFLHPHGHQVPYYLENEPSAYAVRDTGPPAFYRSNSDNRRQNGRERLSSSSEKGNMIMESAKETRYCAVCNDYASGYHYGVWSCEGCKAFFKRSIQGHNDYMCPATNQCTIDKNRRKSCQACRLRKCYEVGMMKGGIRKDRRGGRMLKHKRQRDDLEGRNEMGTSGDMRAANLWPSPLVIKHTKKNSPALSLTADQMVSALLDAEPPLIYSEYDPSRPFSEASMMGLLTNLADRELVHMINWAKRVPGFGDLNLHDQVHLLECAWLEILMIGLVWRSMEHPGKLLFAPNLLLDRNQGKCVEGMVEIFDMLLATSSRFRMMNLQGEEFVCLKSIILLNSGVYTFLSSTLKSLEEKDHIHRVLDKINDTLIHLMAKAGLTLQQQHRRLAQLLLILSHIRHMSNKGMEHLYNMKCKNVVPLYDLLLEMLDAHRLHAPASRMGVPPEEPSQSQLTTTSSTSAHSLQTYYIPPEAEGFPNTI
Excerpt: as §3
Nuclear receptor binding sites were identified using previously published protocols (Sohrabji et al., 1994a,b) and were standardized for this experiment using both MCF-7 cells and hypothalamic tissue. […] Radioactivity was eluted from nuclear pellets with 95% ethanol (moxestrol is completely soluble in >50% ethanol) and the radioactivity counted in a liquid scintillation counter. […] Specific binding was determined as the difference between total binding and non-specific binding (in the presence of an unlabeled competing ligand) and the data expressed as femtomoles of specifically bound [^3 H] -moxestrol/mg DNA. […]

Compound	p75NGFR mRNA level (p75^NGFR mRNA [1]; 1 day after estrogen treatment)	p75NGFR mRNA level (p75^NGFR mRNA [1]; 3 days of estrogen exposure)	p75NGFR mRNA level (p75^NGFR mRNA [1]; 3 days of estrogen exposure, 4320 min)	p75NGFR mRNA level (p75^NGFR mRNA [1]; 7 days of estrogen treatment)	Effect on morphology / neurite differentiation (PC12 cells)	Persistence of tyrosine phosphorylation of the ERKs (ERKs 1 and 2 [2])	Time of maximal tyrosine phosphorylation of the ERKs (ERKs 1 and 2 [2]) [min]	Onset of tyrosine phosphorylation of the ERKs (ERKs 1 and 2 [2]; 24 hrs estrogen and neurotrophin deprivation) [min]	Activity of phosphorylated ERKs in phosphorylating MBP vs untreated controls (ERKs)	Tyrosine phosphorylation of the trk receptors (trk receptors)	Time to tyrosine phosphorylation of ERKs 1 and 2 (ERKs 1 and 2 [3]) [min]	Estradiol-induced ERK stimulation (ERK)	Neurite outgrowth (PC12-E2 cells)	Increase in trkA mRNA (trkA mRNA)	p75NGFR mRNA (p75^NGFR mRNA [4])	Estrogen receptor mRNA (normalized to cyclophilin mRNA) vs control (estrogen receptor mRNA [5])	Estrogen receptor mRNA, density of hybridization signal (estrogen receptor mRNA [6])	Density of estrogen binding sites (estrogen receptor)
C[C@]12CC[C@@H]3c4ccc(O)cc4CC[C@H]3[C@@H]1CC[C@@H]2O [estradiol, 17-β estradiol]	below basal levels	decreased by half	approximately 50 % of baseline	indistinguishable from basal levels; also recorded: no different from basal levels	no readily visible effects; also recorded: did not appear to influence visibly	at least 4 hrs.	30	≤ 5	much more active	induced tyrosine phosphorylation	≤ 15	no estradiol-induced ERK stimulation was observed	little effect	two to three-fold	transient decrease			
hrNGF: human recombinant NGF (gift of Louis Burton, Genetech)																no different; also recorded: did not lead to an alteration	No alterations; also recorded: did not lead to an alteration	did not significantly alter and not

From US5990078A, “Means of increasing estrogen receptor levels in neural tissue” (The Trustees of Columbia University in the City of New York, priority 1996, dated 1999)
